Experiment in all cases: biochemical
Holding throughout (format): binding

The target of test [1] is T1, panel of 442 kinases (Homo sapiens, UniProt Q8IVH8).
T1 construct: purchased Ambit Biosciences (scanMAXX KINOMEscan)
T1 sequence (Q8IVH8 1-894): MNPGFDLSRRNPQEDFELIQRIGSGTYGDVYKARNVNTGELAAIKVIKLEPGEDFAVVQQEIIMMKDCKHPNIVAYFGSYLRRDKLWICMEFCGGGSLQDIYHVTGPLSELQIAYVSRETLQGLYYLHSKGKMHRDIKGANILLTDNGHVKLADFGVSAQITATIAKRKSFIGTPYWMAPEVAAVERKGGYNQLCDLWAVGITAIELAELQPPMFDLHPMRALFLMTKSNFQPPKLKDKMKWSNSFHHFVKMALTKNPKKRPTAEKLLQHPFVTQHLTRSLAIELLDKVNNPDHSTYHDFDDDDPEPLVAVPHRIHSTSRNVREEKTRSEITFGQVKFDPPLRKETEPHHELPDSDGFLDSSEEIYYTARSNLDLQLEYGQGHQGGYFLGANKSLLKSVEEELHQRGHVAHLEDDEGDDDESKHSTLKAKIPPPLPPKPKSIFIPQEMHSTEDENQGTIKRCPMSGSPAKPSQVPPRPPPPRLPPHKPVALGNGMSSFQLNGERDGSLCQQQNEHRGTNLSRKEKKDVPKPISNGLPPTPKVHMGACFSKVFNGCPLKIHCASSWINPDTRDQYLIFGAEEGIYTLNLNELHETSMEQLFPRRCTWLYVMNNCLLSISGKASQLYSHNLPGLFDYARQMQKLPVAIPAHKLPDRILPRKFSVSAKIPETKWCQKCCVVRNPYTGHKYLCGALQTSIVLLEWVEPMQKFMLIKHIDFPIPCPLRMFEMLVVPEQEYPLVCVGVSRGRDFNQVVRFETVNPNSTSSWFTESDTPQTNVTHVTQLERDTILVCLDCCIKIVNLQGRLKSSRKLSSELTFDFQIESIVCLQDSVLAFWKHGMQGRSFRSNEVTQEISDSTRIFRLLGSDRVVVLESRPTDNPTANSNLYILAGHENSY
The settings on record: kinase MAP4K3; for remaining activity at 1 µM: read-out: % of control at 1 µM.

In test [2] the target is T2, panel of 442 kinases (Homo sapiens, UniProt Q15835).
T2 construct: purchased Ambit Biosciences (scanMAXX KINOMEscan)
T2 sequence (Q15835 1-563): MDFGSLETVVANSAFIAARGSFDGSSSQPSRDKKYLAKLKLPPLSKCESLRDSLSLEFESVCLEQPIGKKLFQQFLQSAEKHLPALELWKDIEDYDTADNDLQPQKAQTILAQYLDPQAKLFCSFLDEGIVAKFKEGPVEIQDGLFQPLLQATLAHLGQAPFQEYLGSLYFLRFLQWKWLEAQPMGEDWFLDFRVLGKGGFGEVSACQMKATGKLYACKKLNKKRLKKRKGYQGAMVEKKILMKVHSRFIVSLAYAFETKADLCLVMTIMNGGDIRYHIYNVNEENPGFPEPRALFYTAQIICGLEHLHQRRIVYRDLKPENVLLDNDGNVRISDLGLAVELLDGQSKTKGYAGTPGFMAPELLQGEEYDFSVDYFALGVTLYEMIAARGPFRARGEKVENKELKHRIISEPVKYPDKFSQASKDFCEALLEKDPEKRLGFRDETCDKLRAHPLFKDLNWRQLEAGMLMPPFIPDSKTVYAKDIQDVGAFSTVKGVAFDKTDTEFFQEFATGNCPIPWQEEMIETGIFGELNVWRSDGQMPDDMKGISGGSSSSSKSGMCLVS
The settings on record: kinase GRK1; for remaining activity at 1 µM: read-out: % of control at 1 µM.

Test [3] deals with T3, panel of 442 kinases (Homo sapiens, UniProt Q6P3R8).
T3 construct: purchased Ambit Biosciences (scanMAXX KINOMEscan)
T3 sequence (Q6P3R8 1-708): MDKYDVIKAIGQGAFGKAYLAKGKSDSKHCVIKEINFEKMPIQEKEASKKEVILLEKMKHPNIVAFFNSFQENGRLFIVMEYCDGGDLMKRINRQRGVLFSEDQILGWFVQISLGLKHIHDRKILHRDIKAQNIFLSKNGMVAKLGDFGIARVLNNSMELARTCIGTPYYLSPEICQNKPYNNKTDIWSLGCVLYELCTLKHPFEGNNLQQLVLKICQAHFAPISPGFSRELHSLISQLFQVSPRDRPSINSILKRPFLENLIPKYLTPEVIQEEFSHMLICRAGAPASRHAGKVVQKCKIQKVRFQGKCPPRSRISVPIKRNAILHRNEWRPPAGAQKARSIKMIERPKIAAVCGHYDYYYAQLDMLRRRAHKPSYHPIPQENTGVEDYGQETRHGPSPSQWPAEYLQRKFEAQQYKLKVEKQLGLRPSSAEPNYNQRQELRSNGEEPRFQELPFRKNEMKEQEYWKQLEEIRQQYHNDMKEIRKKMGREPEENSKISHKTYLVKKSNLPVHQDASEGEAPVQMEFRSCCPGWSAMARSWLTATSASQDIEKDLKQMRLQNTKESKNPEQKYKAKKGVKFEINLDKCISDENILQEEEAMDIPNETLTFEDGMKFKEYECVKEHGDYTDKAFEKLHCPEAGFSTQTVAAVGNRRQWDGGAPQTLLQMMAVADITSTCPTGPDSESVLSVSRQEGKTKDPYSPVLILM
The settings on record: kinase NEK5; for remaining activity at 1 µM: read-out: % of control at 1 µM.

The target in test [4] is T4, panel of 442 kinases (Homo sapiens, UniProt Q9Y5S2).
T4 construct: purchased Ambit Biosciences (scanMAXX KINOMEscan)
T4 sequence (Q9Y5S2 whole entry): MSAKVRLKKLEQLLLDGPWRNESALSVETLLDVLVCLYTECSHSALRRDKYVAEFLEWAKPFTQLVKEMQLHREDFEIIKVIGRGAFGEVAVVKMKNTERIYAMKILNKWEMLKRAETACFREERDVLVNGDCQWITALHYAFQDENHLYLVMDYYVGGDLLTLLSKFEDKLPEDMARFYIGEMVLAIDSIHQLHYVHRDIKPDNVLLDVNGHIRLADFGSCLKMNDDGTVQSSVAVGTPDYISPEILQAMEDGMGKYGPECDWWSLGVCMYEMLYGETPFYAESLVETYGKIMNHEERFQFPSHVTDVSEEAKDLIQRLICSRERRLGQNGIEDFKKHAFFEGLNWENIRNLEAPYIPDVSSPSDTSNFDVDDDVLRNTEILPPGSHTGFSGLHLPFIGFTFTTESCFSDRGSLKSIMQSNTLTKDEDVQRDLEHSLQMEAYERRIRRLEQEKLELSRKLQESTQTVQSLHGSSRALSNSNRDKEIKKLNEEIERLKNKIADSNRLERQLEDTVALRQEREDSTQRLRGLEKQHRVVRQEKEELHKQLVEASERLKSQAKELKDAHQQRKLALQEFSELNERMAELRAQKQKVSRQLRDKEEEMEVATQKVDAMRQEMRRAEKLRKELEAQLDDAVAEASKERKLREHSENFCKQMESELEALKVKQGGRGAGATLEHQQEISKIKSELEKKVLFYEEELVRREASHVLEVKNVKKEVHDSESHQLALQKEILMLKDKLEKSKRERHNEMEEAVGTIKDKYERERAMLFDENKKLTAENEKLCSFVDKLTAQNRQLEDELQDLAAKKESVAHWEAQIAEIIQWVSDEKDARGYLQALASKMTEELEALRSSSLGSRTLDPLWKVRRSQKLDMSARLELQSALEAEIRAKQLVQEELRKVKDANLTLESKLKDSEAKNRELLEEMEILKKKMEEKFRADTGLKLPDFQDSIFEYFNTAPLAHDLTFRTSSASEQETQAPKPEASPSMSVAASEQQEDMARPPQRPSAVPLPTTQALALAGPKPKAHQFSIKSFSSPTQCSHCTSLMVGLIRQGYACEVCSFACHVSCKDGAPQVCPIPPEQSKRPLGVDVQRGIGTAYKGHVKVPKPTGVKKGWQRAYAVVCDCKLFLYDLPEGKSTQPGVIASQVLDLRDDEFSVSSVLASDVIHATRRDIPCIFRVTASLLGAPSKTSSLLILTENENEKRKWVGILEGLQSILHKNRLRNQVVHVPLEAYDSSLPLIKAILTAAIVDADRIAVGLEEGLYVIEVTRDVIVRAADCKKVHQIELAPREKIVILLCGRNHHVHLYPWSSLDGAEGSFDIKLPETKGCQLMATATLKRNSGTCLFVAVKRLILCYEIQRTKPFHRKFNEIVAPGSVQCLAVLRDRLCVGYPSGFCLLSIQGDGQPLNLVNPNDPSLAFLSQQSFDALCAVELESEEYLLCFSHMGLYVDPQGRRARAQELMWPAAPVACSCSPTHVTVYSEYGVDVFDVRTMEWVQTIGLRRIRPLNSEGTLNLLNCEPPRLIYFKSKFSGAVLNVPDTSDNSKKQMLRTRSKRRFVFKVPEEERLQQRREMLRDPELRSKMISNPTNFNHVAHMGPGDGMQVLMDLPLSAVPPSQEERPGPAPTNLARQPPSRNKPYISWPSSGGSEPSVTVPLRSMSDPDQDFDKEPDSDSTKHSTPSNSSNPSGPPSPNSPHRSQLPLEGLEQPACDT
The settings on record: kinase MRCKB; for remaining activity at 1 µM: read-out: % of control at 1 µM.

Test [5] addresses T5, panel of 442 kinases (Homo sapiens, UniProt P07949, M918T).
T5 construct: purchased Ambit Biosciences (scanMAXX KINOMEscan)
The conditions noted are these: kinase RET(M918T); for remaining activity at 1 µM: read-out: RET(M918T) (% of control at 1 µM).

The mark [6] stands for this setting: 10 µM, read-out: % of control at 10 µM.

T5 sequence (P07949 29-1114 M918T): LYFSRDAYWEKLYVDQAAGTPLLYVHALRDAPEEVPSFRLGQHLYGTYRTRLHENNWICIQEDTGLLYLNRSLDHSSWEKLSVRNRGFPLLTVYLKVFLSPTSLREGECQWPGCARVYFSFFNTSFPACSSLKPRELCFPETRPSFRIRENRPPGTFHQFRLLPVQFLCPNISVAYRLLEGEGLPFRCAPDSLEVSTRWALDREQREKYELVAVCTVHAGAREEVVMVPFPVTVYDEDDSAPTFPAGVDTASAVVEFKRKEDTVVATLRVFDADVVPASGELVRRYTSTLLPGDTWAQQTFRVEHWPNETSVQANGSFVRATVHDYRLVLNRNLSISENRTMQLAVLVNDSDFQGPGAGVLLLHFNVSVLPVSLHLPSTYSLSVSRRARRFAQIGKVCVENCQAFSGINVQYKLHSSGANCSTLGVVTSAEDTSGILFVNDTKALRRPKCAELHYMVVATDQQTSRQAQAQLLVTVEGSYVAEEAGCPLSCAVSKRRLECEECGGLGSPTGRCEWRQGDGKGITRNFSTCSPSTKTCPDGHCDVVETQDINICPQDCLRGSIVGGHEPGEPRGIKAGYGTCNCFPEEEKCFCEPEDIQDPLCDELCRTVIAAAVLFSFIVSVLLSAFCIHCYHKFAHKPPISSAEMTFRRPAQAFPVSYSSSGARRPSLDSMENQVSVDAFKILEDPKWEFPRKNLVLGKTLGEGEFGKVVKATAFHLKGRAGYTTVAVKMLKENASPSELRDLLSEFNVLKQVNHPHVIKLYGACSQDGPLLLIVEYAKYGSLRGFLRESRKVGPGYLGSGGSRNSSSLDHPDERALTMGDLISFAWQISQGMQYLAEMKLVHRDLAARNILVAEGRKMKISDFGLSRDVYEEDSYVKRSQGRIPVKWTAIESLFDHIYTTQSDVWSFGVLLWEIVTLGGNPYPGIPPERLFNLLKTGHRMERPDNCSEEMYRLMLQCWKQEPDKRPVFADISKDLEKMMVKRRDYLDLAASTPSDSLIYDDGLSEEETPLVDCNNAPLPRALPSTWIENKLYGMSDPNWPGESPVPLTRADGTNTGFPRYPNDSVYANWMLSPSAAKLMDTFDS

In the case of `COc1ncc(-c2ccc3nccc(-c4ccnnc4)c3c2)cc1NS(=O)(=O)c1ccc(F)cc1F` [Omipalisib], the remaining activity at 1 µM in test [1] worked out at 85%; in test [2] it was 81%; in test [3], 100%; in test [4] it was 100%; in test [5], 100%.
Take `Cn1c(=O)n(-c2ccc(C(C)(C)C#N)cc2)c2c3cc(-c4cnc5ccccc5c4)ccc3ncc21` [Dactolisib, 2-methyl-2-[4-(3-methyl-2-oxo-8-quinolin-3-yl-2,3-dihydroimidazo[4,5-c]quinolin-1-yl)-phenyl] propionitrile]: the remaining activity at 1 µM in test [1] was determined as 30%; in test [2], 100%; in test [3], 62%; in test [4], 86%; in test [5], 100%.
As for `Nc1cc(C(F)(F)F)c(-c2cc(N3CCOCC3)nc(N3CCOCC3)n2)cn1` [Buparlisib], the remaining activity at 1 µM in test [1] is 93%; in test [2] it was 100%; in test [3], 100%; in test [4], 100%; in test [5], 100%. Also, the remaining activity at 10 µM in test [1] (setting [6]) came to 81%; in test [2] (setting [6]), 100%; in test [3] (setting [6]), 88%; in test [4] (setting [6]), 100%; in test [5] (10 µM, read-out: RET(M918T) (% of control at 10 µM)) it was 95%.
Regarding `FC(F)c1nc2ccccc2n1-c1nc(N2CCOCC2)nc(N2CCOCC2)n1` [ZSTK474, 2-(difluoromethyl)-1-[4,6-di(4-morpholinyl)-1,3,5-triazin-2-yl]-1H-benzimidazole], the remaining activity at 1 µM in test [1] was found to be 87%; in test [2] it was 100%; in test [3], 89%; in test [4], 80%; in test [5], 89%.

The record behind these values is paper PMC5564600 (Oncotarget, 2017).
